IC50 and EC50 data for 36 compounds are collected here from ChEMBL document CHEMBL3351830, “Discovery and structure-activity relationships of phenyl benzenesulfonylhydrazides as novel indoleamine 2,3-dioxygenase inhibitors” (Bioorg Med Chem Lett, 2014).

For one experiment, the target named is T1, Indoleamine 2,3-dioxygenase 1 (Homo sapiens, UniProt P14902). As to the kind of experiment: Inhibition of human recombinant IDO expressed in Escherichia coli using N-formylkynurenine as substrate incubated for 1 hr prior to NaOH addition measured after 4 hrs by spectrophotometry.
T1 sequence (P14902 whole entry): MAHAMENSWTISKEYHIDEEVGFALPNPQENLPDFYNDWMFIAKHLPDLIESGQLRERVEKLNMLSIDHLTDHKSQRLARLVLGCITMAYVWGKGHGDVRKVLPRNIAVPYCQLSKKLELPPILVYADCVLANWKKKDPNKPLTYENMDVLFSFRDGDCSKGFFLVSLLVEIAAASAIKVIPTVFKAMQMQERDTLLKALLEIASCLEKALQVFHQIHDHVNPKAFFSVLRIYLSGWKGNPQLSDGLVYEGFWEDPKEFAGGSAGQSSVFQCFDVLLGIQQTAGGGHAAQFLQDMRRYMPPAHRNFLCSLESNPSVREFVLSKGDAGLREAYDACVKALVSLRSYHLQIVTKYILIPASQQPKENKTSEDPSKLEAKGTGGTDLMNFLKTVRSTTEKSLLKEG
The term IC50 denotes the concentration that gives 50% inhibition. As to `CC(=O)Nc1ccc(S(=O)(=O)NNc2cccc(C)c2)cc1`, the IC50 was 49 nM.
On the same count and under the same terms, the value for `O=S(=O)(CCc1ccccc1)NNc1ccccc1` was 167 nM; that for `Cc1cccc(NNS(=O)(=O)c2ccc(C(=O)NCC(=O)O)cc2)c1` was 80 nM; that for `Cc1cccc(NNS(=O)(=O)c2ccc(S(C)(=O)=O)cc2)c1` was 43 nM.
In the case of `Cc1cccc(NNS(=O)(=O)c2ccc(C#N)cc2)c1`, the IC50 amounted to 59 nM.
On the same count and under the same terms, under `Cc1cccc(NNS(=O)(=O)c2ccc(Oc3ccc(C(F)(F)F)cn3)cc2)c1` stands 59 nM.
On the same count and under the same terms, the value for `CC(=O)Nc1ccc(S(=O)(=O)NNc2ccccc2)cc1` was 71 nM; that for `CC(=O)Nc1ccc(S(=O)(=O)NNc2ccc(C)cc2)cc1` was 51 nM.
Same read-out and setting: under `COc1ccc(NNS(=O)(=O)c2ccc(NC(C)=O)cc2)cc1` stands 254 nM; under `CC(=O)Nc1ccc(S(=O)(=O)NNc2ccc(C#N)cc2)cc1`, 5670 nM; under `CC(=O)Nc1ccc(S(=O)(=O)NNc2ccc(S(N)(=O)=O)cc2)cc1`, 2480 nM.
Regarding `CC(=O)Nc1ccc(S(=O)(=O)NNc2ccc(C(F)(F)F)cc2)cc1`, the IC50 was 1610 nM.
For `CC(=O)Nc1ccc(S(=O)(=O)NNc2ccc(F)cc2)cc1`, the IC50 amounted to 79 nM.
With `CC(=O)Nc1ccc(S(=O)(=O)NNc2ccc(Cl)cc2)cc1`, the IC50 came to 155 nM.
Still for that read-out and setting: the value for `CC(=O)Nc1ccc(S(=O)(=O)NNc2ccc(Br)cc2)cc1` was 130 nM.
The same measure, in the same setting: the value for `CC(=O)Nc1ccc(S(=O)(=O)NNc2cccc(F)c2)cc1` was 122 nM.
Regarding `CC(=O)Nc1ccc(S(=O)(=O)NNc2cccc(Br)c2)cc1`, the IC50 stood at 255 nM.
Still for that read-out and setting: under `CC(=O)Nc1ccc(S(=O)(=O)NNc2ccc(F)c(Br)c2)cc1` stands 128 nM.
Consider `CC(=O)Nc1ccc(S(=O)(=O)NNc2ccc(F)c(Cl)c2)cc1`, for which the IC50 came out at 110 nM.
Still for that read-out and setting: under `CC(=O)Nc1ccc(S(=O)(=O)NNc2ccc(Br)c(F)c2)cc1` stands 205 nM.
Turning to `CC(=O)Nc1ccc(S(=O)(=O)NNc2ccc(Br)c(C)c2)cc1`, the IC50 came to 58 nM.
The same measure, in the same setting: under `CC(=O)Nc1ccc(S(=O)(=O)NNc2ccc(Cl)c(F)c2)cc1` stands 194 nM; under `CC(=O)Nc1ccc(S(=O)(=O)NNc2cc(F)cc(F)c2)cc1`, 1750 nM.
For the compound `CC(=O)Nc1ccc(S(=O)(=O)NNc2ccc(F)cc2F)cc1`, the IC50 stood at 608 nM.
Same read-out and setting: under `CC(=O)Nc1ccc(S(=O)(=O)NNc2ccc(Cl)c(Cl)c2)cc1` stands 247 nM; under `CC(=O)Nc1ccc(S(=O)(=O)NNc2cc(Cl)cc(Cl)c2)cc1`, 352 nM.
Turning to `O=S(=O)(NNc1ccc(Br)cc1)c1ccccc1`, the half-maximal inhibitory concentration (IC50) is 172 nM.
Still for that read-out and setting: under `O=S(=O)(NNc1ccc(Br)cc1)c1ccc(Br)cc1` stands 85 nM.
Same read-out and setting: under `COc1ccc(S(=O)(=O)NNc2ccc(Br)cc2)cc1` stands 1430 nM; under `N#Cc1ccc(S(=O)(=O)NNc2ccc(Br)cc2)cc1`, 176 nM; under `COC(=O)CCc1ccc(S(=O)(=O)NNc2ccc(Br)cc2)cc1`, 121 nM.
Same read-out and setting: the value for `CCCC(=O)Nc1ccc(S(=O)(=O)NNc2ccc(Br)cc2)cc1` was 132 nM; that for `O=C(O)CCc1ccc(S(=O)(=O)NNc2ccc(Br)cc2)cc1` was 141 nM; that for `O=C(O)COc1ccc(S(=O)(=O)NNc2ccc(Br)cc2)cc1` was 125 nM.
Take `O=C(O)c1ccc(S(=O)(=O)NNc2ccc(Br)cc2)cc1`: the IC50 was determined as 61 nM.
Turning to `CC(=O)Nc1ccc(S(=O)(=O)NN(C)c2ccc(Br)cc2)cc1`, the IC50 worked out at 4050 nM.

The next experiment addresses T1, Indoleamine 2,3-dioxygenase 1. As to the kind of experiment: Inhibition of IDO in human HeLa cells after 24 hrs by spectrophotometry. The class given is cell-based.
In general, EC50 refers to the concentration needed to bring the measured effect to its halfway point. A high value points to a less potent agent. The compound `CC(=O)Nc1ccc(S(=O)(=O)NNc2cccc(C)c2)cc1` came in with a concentration giving a half-maximal response (EC50) of 241 nM.
`O=S(=O)(CCc1ccccc1)NNc1ccccc1` displayed an EC50 of more than 10000 nM.
Regarding `Cc1cccc(NNS(=O)(=O)c2ccc(C(=O)NCC(=O)O)cc2)c1`, the EC50 came to 271 nM.
For `Cc1cccc(NNS(=O)(=O)c2ccc(S(C)(=O)=O)cc2)c1`, the 50% effective concentration (EC50) was found to be 7850 nM.
Still for that read-out and setting: under `Cc1cccc(NNS(=O)(=O)c2ccc(C#N)cc2)c1` stands 3400 nM; under `Cc1cccc(NNS(=O)(=O)c2ccc(Oc3ccc(C(F)(F)F)cn3)cc2)c1`, 296 nM; under `CC(=O)Nc1ccc(S(=O)(=O)NNc2ccccc2)cc1`, more than 10000 nM.
Same read-out and setting: under `CC(=O)Nc1ccc(S(=O)(=O)NNc2ccc(C)cc2)cc1` stands 1170 nM.
The same measure, in the same setting: the value for `COc1ccc(NNS(=O)(=O)c2ccc(NC(C)=O)cc2)cc1` was more than 10000 nM; that for `CC(=O)Nc1ccc(S(=O)(=O)NNc2ccc(C#N)cc2)cc1` was 1390 nM; that for `CC(=O)Nc1ccc(S(=O)(=O)NNc2ccc(S(N)(=O)=O)cc2)cc1` was 3120 nM.
Turning to `CC(=O)Nc1ccc(S(=O)(=O)NNc2ccc(C(F)(F)F)cc2)cc1`, the response was half-maximal at 181 nM (EC50).
On the same count and under the same terms, under `CC(=O)Nc1ccc(S(=O)(=O)NNc2ccc(F)cc2)cc1` stands 609 nM; under `CC(=O)Nc1ccc(S(=O)(=O)NNc2ccc(Cl)cc2)cc1`, 142 nM.
The same measure, in the same setting: the value for `CC(=O)Nc1ccc(S(=O)(=O)NNc2ccc(Br)cc2)cc1` was 85 nM; that for `CC(=O)Nc1ccc(S(=O)(=O)NNc2cccc(F)c2)cc1` was more than 10000 nM; that for `CC(=O)Nc1ccc(S(=O)(=O)NNc2cccc(Br)c2)cc1` was 7560 nM.
Consider `CC(=O)Nc1ccc(S(=O)(=O)NNc2ccc(F)c(Br)c2)cc1`, for which the midpoint of the response, the EC50, lay at 2490 nM.
Compound `CC(=O)Nc1ccc(S(=O)(=O)NNc2ccc(F)c(Cl)c2)cc1` had an EC50 of 2590 nM.
The same measure, in the same setting: the value for `CC(=O)Nc1ccc(S(=O)(=O)NNc2ccc(Br)c(F)c2)cc1` was 187 nM; that for `CC(=O)Nc1ccc(S(=O)(=O)NNc2ccc(Br)c(C)c2)cc1` was 130 nM.
Still for that read-out and setting: under `CC(=O)Nc1ccc(S(=O)(=O)NNc2ccc(Cl)c(F)c2)cc1` stands 84 nM.
Still for that read-out and setting: the value for `CC(=O)Nc1ccc(S(=O)(=O)NNc2cc(F)cc(F)c2)cc1` was 2230 nM.
For the compound `CC(=O)Nc1ccc(S(=O)(=O)NNc2ccc(F)cc2F)cc1`, the EC50 was more than 10000 nM.
Same read-out and setting: the value for `CC(=O)Nc1ccc(S(=O)(=O)NNc2ccc(Cl)c(Cl)c2)cc1` was 350 nM; that for `CC(=O)Nc1ccc(S(=O)(=O)NNc2cc(Cl)cc(Cl)c2)cc1` was 508 nM.
On to `O=S(=O)(NNc1ccc(Br)cc1)c1ccccc1`, for which the EC50 stood at 128 nM.
As to `O=S(=O)(NNc1ccc(Br)cc1)c1ccc(Br)cc1`, the midpoint of the response, the EC50, lay at 374 nM.
The compound `COc1ccc(S(=O)(=O)NNc2ccc(Br)cc2)cc1` registered an EC50 of 640 nM.
Compound `N#Cc1ccc(S(=O)(=O)NNc2ccc(Br)cc2)cc1` had a concentration giving a half-maximal response (EC50) of 134 nM.
Compound `COC(=O)CCc1ccc(S(=O)(=O)NNc2ccc(Br)cc2)cc1` had an EC50 of 465 nM.
In turn, `CCCC(=O)Nc1ccc(S(=O)(=O)NNc2ccc(Br)cc2)cc1` yielded an EC50 of 187 nM.
On the same count and under the same terms, under `O=C(O)CCc1ccc(S(=O)(=O)NNc2ccc(Br)cc2)cc1` stands 183 nM; under `O=C(O)COc1ccc(S(=O)(=O)NNc2ccc(Br)cc2)cc1`, 152 nM; under `O=C(O)c1ccc(S(=O)(=O)NNc2ccc(Br)cc2)cc1`, 172 nM.
